Laboratory results: patent publication US20090220429A1, “METHOD AND A SYSTEM FOR ASSESSING NEUROLOGICAL CONDITIONS” (METIS CURA EHF, priority 2005, published 2009)

What was measured:
[1] = test system: subjects with dementia of the Alzheimer's type (AD group) and healthy control group; test: Clinical trial: EEG recorded before and after intravenous scopolamine as probe compound, feature pair classification of AD group versus control group; format: in vivo, human; conditions: for number of feature pair classifiers scoring 80% or better: features 33-48 (ratios before/after administration), P3-P4 montage, leave one out
Text: The effectiveness of the invention has been verified in a clinical trial. The participants in the trial were divided in two groups. One group consisted of 10 elderly subjects that have been diagnosed with, mild to moderate, dementia of the Alzheimer's type (AD group). A second age-matched group of 10 healthy individuals (i.e. non-AD individuals) was included as a control group.
The AD-group of participants consisted of patients in follow-up surveillance in the memory clinic at the Department of Geriatrics in Landspitali University Hospital, Reykjavik, Iceland. The group consisted of patients with Alzheimer's Disease (AD) (N=10) according to ICD-10. The other group consisted of normal Control participants (N=10), who were recruited from relatives of demented patients attending a day-care center.
To be eligible for participation in the study the subjects had to be in the range of 60-80 years of age, in good general health as determined by standard physical examination, with no acute changes on ECG. Exclusion criteria included smoking or any other use of tobacco (also excluding those that had stopped tobacco use about a week or less prior to the trial), treatment with neuroleptics and benzodiazepines, impaired liver- or kidney function, hypersensitivity to scopolamine, indication of drug, alcohol or medical abuse, glaucoma or possibility of raised intraocular pressure with administration of scopolamine. Prior to the screening visit the subjects were interviewed by phone. The AD subjects were selected from hospital records. All the AD patients in the follow-up program at the Memory Clinic were being treated with anti-dementia drugs. To minimize the variation between the subjects in the trial, the participants in the AD-group were selected from patients that were being treated with the same cholinesterase-inhibitor, Reminyl® (galantamine HBr).
Electroencephalographic neurophysiological signals were recorded from each of the subjects. The recording protocol was divided into two parts 105, 107 or sessions which were identical. In between the sessions the provided substance 101 substance scopolamine was administered intravenously, see FIG. 10. Within each section a two-minute period was recorded while the subject was instructed to be at rest with eyes closed. The data collected from these periods were used to estimate the individual features. The substance scopolamine was chosen based on its effects perturbing biophysical pathways that are known to deteriorate in subjects suffering from Alzheimer's disease. […]
The electroencephalographic signals were recorded using computerized measuring equipment, see FIG. 11. […]
These features were evaluated using a part of the first section where the subjects were at rest with eyes closed. […]

[2] = test system: early DAT subjects compared to controls; conditions: 1-3 min post-injection; no significant group difference at baseline; cited from earlier work

Row | Structure (SMILES) | classification performance ([1]; 3-NN scheme, FIG. 15, response feature set versus pre-administration feature set) | number of feature pair classifiers scoring 80% or better ([1]; 3-NN scheme, 4 with pre-administration features 1-16) | number of feature pair classifiers scoring 80% or better ([1]; SVM classification scheme, 5 with pre-administration features 1-16) | separation between the AD and control groups for a feature pair ([1]; ratio of feature values pre- and post-administration (FIG. 14) versus features before administration (FIG. 13)) | beta power response in the frontal region, early DAT subjects compared to controls [2]
1 | CN1[C@@H]2C[C@@H](OC(=O)[C@H](CO)c3ccccc3)C[C@H]1[C@@H]1O[C@@H]12 [scopolamine] | substantially enhanced classification performance | 29 | 23 | significantly better separation between the groups | –
2 | CCCC(C)C1(CC)C(=O)NC(=S)NC1=O (centres unmarked) [thiopental] | – | – | – | – | significantly smaller beta power response
